Experimental findings from patent US10160954B2, “Engineered physical alignment of stem cell-derived cardiomyocytes” (The Regents of the University of California, priority 2013, dated 2018) are described below.

SMILES strings stand for the structures.

This series relates to hESC-VCMs. The series can be described thus: Effect of isoproterenol on control and P5-aligned hESC-VCM preparations (optical mapping). Format: cell-based, human. As to conditions: for CV of control preparations: steady-state pacing at 1 Hz. As to the method:
HESC-VCM preparations were loaded with 4 μM di-4-ANEPPS (Invitrogen, USA) for 20 min at room temperature in Tyrode's solution, consisting of (mM) 140 NaCl, 5 KCl, 1 MgCl2, 1 CaCl2, 10 glucose, and 10 HEPES at pH 7.4, then washed twice before fluorescence imaging using a halogen light filtered by a 515±35 nm band-pass excitation filter and a 590 nm high-pass emission filter. High-resolution optical mapping of AP and conduction properties was performed using a MiCam Ultima (SciMedia, Calif., USA) with a 1X objective and a 1X condensing lens to yield a 10×10 mm^2 field of view. A custom heat plate was introduced to maintain the perfused Tyrode's solution at 37° C. Data were collected at a sampling rate of 200 Hz and analyzed using BV_Ana software (SciMedia). Isoproterenol (Sigma-Aldrich, N.Y., USA) was applied by perfusion at the concentrations indicated.
Electrophysiological protocols were generated using a programmable stimulator (Master8, AMPI, Israel) with the stimuli delivered via a unipolar point-stimulation electrode (1.5× threshold, 10 ms duration) placed perpendicular to the preparation surface. […] The frequency was increased every minute in 0.1-Hz increments with a 5-sec pause.
Mapping was performed during the last 5-10 seconds of each frequency. […] Programmed electrical stimulation, Standard (S1-S2) programmed electrical stimulation (PES) protocol was introduced to study the electrical restitution curve (ERC) of hESC-VCMs. A premature extra-stimulus (S2) was delivered after a train of eight S1 stimuli at a basic cycle length (BCL) of 650 ms. S1-S2 interval was initiated at 600 ms and consecutively shortened in steps of 20 ms until capture has failed. […] There was a pause of 10 s after each S2. The entire stimulation protocol was performed within 30 minutes after di-4-ANEPPS staining.

Where [1] appears, read: P5-aligned preparations, 0.5 μM, n=3.

With `CC(C)NCC(O)c1ccc(O)c(O)c1` (stereo not shown) [isoproterenol], the “CV of control preparations” value is, setting by setting: (0.1 μM isoproterenol, n=3) 6.3 ± 1.4 cm/s; (0.5 μM isoproterenol, n=3) 7.6 ± 1.1 cm/s; (1.0 μM isoproterenol, n=3) 8.1 ± 0.6 cm/s. Besides, the “depolarization (upstroke) velocity” value (FIG. 6, hESC-VCMs) is “increasing”. Besides, where the note is “FIG. 6F, hESC-VCMs”, the AP duration result is “reduces”. Besides, the “sustained functional reentrant arrhythmias” value (P5-aligned preparations, 0.5 μM, n=2) is on record as “no sustained functional reentrant arrhythmias could be observed”. Also, under setting [1], the L-CV after isoproterenol turned out to be 7.76 cm/s. Further, the T-CV after isoproterenol under setting [1] came out at 4.91 cm/s. The “AR after isoproterenol application” value (P5-aligned preparations, n=2) was 1.76. Also, the “control preparations with spontaneous spiral waves (sustained functional reentrant arrhythmias)” value (control substrates, 2 of 3 preparations, 0.5 μM per FIG. 6C) is reported as 66%.
